Here are results for 44 substances from patent publication US20230263822A1, “MODULATION OF FACTOR 11 EXPRESSION” (Ionis Pharmaceuticals, Inc., priority 2008, published 2023).

Strand notation (5' to 3'): a small letter for the sugar, then the base; units joined by * are phosphorothioate-linked, units joined directly phosphodiester-linked; [ ] holds rarer units or linkages, { } end groups; capitals alone tell only the bases. e = 2'-O-(2-methoxyethyl) (MOE); [5mC] = 5-methylcytosine; d = 2'-deoxy (DNA)

This series concerns human Factor 11 mRNA. As to the kind of experiment: Antisense inhibition of human Factor 11 in HepG2 cells by microwalk gapmers, lipofectin, 75 nM (Example 3). It counts as cell-based. The method, boiled down:
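HepG2 cells (10,000/well) were transfected via lipofectin with 75 nM 20-mer MOE gapmers (phosphorothioate, 5-methyl-C) for about 24 h. Factor 11 mRNA was measured by qRT-PCR, normalized to RIBOGREEN total RNA, and given as percent inhibition versus untreated cells.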

[1] abbreviates: HepG2, lipofectin, ~24 h, gapmers targeted to nucleobases 656 to 704 of SEQ ID NO: 1.
[2] abbreviates: HepG2 cells, lipofectin, gapmers targeted to nucleobases 738 to 762 of SEQ ID NO: 1.
[3] abbreviates: HepG2 cells, lipofectin, gapmers targeted to nucleobases 1018 to 1042 of SEQ ID NO: 1.
[4] abbreviates: HepG2 cells, lipofectin, gapmers targeted to nucleobases 1062 to 1091 of SEQ ID NO: 1.
[5] abbreviates: HepG2 cells, lipofectin, gapmers targeted to nucleobases 1275 to 1318 of SEQ ID NO: 1.

A word on the % inhibition: it is the share of the control response that was lost under treatment. A low value points to a weak effect. As to “416963 (antisense e[5mC]*eA*dT*dG*dT*d[5mC]*dT*dA*dG*dG*dT*d[5mC]*d[5mC]*dA*d[5mC]*eA*eT*eA*eA*eA) [compound 416963]”, the “% inhibition” value under setting [1] is 48%. Take “416964 (antisense eT*e[5mC]*dA*dT*dG*dT*d[5mC]*dT*dA*dG*dG*dT*d[5mC]*d[5mC]*dA*e[5mC]*eA*eT*eA*eA) [compound 416964]”: under setting [1], the “% inhibition” value turned out to be 69%. Consider “416965 (antisense eT*eT*d[5mC]*dA*dT*dG*dT*d[5mC]*dT*dA*dG*dG*dT*d[5mC]*d[5mC]*eA*e[5mC]*eA*eT*eA) [compound 416965]”, for which the “% inhibition” value under setting [1] stood at 53%.

In the case of “416966 (antisense e[5mC]*eT*dT*d[5mC]*dA*dT*dG*dT*d[5mC]*dT*dA*dG*dG*dT*d[5mC]*e[5mC]*eA*e[5mC]*eA*eT) [compound 416966]”, the “% inhibition” value under setting [1] came to 64%. Same read-out and setting: the result for “416967 (antisense e[5mC]*e[5mC]*dT*dT*d[5mC]*dA*dT*dG*dT*d[5mC]*dT*dA*dG*dG*dT*e[5mC]*e[5mC]*eA*e[5mC]*eA) [compound 416967]” reads 75%. Turning to “416968 (antisense e[5mC]*e[5mC]*d[5mC]*dT*dT*d[5mC]*dA*dT*dG*dT*d[5mC]*dT*dA*dG*dG*eT*e[5mC]*e[5mC]*eA*e[5mC]) [compound 416968]”, under setting [1], the “% inhibition” value was found to be 73%.

For the substance “416970 (antisense eT*eG*d[5mC]*d[5mC]*d[5mC]*dT*dT*d[5mC]*dA*dT*dG*dT*d[5mC]*dT*dA*eG*eG*eT*e[5mC]*e[5mC]) [compound 416970]”, the “% inhibition” value under setting [1] is recorded as 88%. Consider “416971 (antisense eA*eT*dG*d[5mC]*d[5mC]*d[5mC]*dT*dT*d[5mC]*dA*dT*dG*dT*d[5mC]*dT*eA*eG*eG*eT*e[5mC]) [compound 416971]”, for which, under setting [1], the “% inhibition” value is listed as 83%.

“416974 (antisense eT*eT*dT*dA*dT*dG*d[5mC]*d[5mC]*d[5mC]*dT*dT*d[5mC]*dA*dT*dG*eT*e[5mC]*eT*eA*eG) [compound 416974]”: under setting [1], the “% inhibition” value is given as 73%.

Regarding “416975 (antisense e[5mC]*e[5mC]*dG*dT*dG*d[5mC]*dA*dT*d[5mC]*dT*dT*dT*d[5mC]*dT*dT*eG*eG*e[5mC]*eA*eT) [compound 416975]”, the “% inhibition” value under setting [2] is reported as 87%. Still for that read-out and setting: the result for “416976 (antisense eT*e[5mC]*d[5mC]*dG*dT*dG*d[5mC]*dA*dT*d[5mC]*dT*dT*dT*d[5mC]*dT*eT*eG*eG*e[5mC]*eA) [compound 416976]” reads 83%; that for “416977 (antisense eA*eT*d[5mC]*d[5mC]*dG*dT*dG*d[5mC]*dA*dT*d[5mC]*dT*dT*dT*d[5mC]*eT*eT*eG*eG*e[5mC]) [compound 416977]”, 82%; that for “416978 (antisense e[5mC]*eA*dT*d[5mC]*d[5mC]*dG*dT*dG*d[5mC]*dA*dT*d[5mC]*dT*dT*dT*e[5mC]*eT*eT*eG*eG) [compound 416978]”, 76%. For “416979 (antisense eT*e[5mC]*dA*dT*d[5mC]*d[5mC]*dG*dT*dG*d[5mC]*dA*dT*d[5mC]*dT*dT*eT*e[5mC]*eT*eT*eG) [compound 416979]”, the “% inhibition” value under setting [2] was found to be 63%.

For “416980 (antisense eG*eT*d[5mC]*dA*dT*d[5mC]*d[5mC]*dG*dT*dG*d[5mC]*dA*dT*d[5mC]*dT*eT*eT*e[5mC]*eT*eT) [compound 416980]”, the “% inhibition” value under setting [2] was 87%. Turning to “416981 (antisense e[5mC]*e[5mC]*dG*dG*dG*dA*dT*dG*dA*dT*dG*dA*dG*dT*dG*e[5mC]*eA*eG*eA*eT) [compound 416981]”, under setting [3], the “% inhibition” value turned out to be 87%.

Turning to “416982 (antisense eA*e[5mC]*d[5mC]*dG*dG*dG*dA*dT*dG*dA*dT*dG*dA*dG*dT*eG*e[5mC]*eA*eG*eA) [compound 416982]”, under setting [3], the “% inhibition” value was found to be 84%. As for “416983 (antisense eA*eA*d[5mC]*d[5mC]*dG*dG*dG*dA*dT*dG*dA*dT*dG*dA*dG*eT*eG*e[5mC]*eA*eG) [compound 416983]”, the “% inhibition” value under setting [3] was determined as 86%. In the case of “416986 (antisense eA*eT*dT*d[5mC]*dT*dT*dT*dG*dG*dG*d[5mC]*d[5mC]*dA*dT*dT*e[5mC]*e[5mC]*eT*eG*eG) [compound 416986]”, under setting [4], the “% inhibition” value stood at 88%. As to “416987 (antisense eG*eA*dT*dT*d[5mC]*dT*dT*dT*dG*dG*dG*d[5mC]*d[5mC]*dA*dT*eT*e[5mC]*e[5mC]*eT*eG) [compound 416987]”, the “% inhibition” value under setting [4] came out at 80%.

On to “416988 (antisense eA*eG*dA*dT*dT*d[5mC]*dT*dT*dT*dG*dG*dG*d[5mC]*d[5mC]*dA*eT*eT*e[5mC]*e[5mC]*eT) [compound 416988]”, for which the “% inhibition” value under setting [4] stood at 76%. Take “416990 (antisense eT*eG*dA*dG*dA*dT*dT*d[5mC]*dT*dT*dT*dG*dG*dG*d[5mC]*e[5mC]*eA*eT*eT*e[5mC]) [compound 416990]”: the “% inhibition” value under setting [4] is 76%. Consider “416991 (antisense eT*eT*dG*dA*dG*dA*dT*dT*d[5mC]*dT*dT*dT*dG*dG*dG*e[5mC]*e[5mC]*eA*eT*eT) [compound 416991]”, for which the “% inhibition” value under setting [4] stood at 87%. For the substance “416992 (antisense eT*eT*dT*dG*dA*dG*dA*dT*dT*d[5mC]*dT*dT*dT*dG*dG*eG*e[5mC]*e[5mC]*eA*eT) [compound 416992]”, under setting [4], the “% inhibition” value is reported as 84%.

Regarding “416994 (antisense eT*e[5mC]*dT*dT*dT*dG*dA*dG*dA*dT*dT*d[5mC]*dT*dT*dT*eG*eG*eG*e[5mC]*e[5mC]) [compound 416994]”, the “% inhibition” value under setting [4] is listed as 83%. In the case of “416995 (antisense eT*eT*d[5mC]*dT*dT*dT*dG*dA*dG*dA*dT*dT*d[5mC]*dT*dT*eT*eG*eG*eG*e[5mC]) [compound 416995]”, the “% inhibition” value under setting [4] is 64%. For the substance “416996 (antisense eT*eT*dT*d[5mC]*dT*dT*dT*dG*dA*dG*dA*dT*dT*d[5mC]*dT*eT*eT*eG*eG*eG) [compound 416996]”, the “% inhibition” value under setting [4] is given as 22%. Turning to “416997 (antisense eA*e[5mC]*dA*dG*dT*dT*dT*d[5mC]*dT*dG*dG*d[5mC]*dA*dG*dG*e[5mC]*e[5mC]*eT*e[5mC]*eG) [compound 416997]”, under setting [5], the “% inhibition” value is 84%. Regarding “416998 (antisense e[5mC]*eA*d[5mC]*dA*dG*dT*dT*dT*d[5mC]*dT*dG*dG*d[5mC]*dA*dG*eG*e[5mC]*e[5mC]*eT*e[5mC]) [compound 416998]”, under setting [5], the “% inhibition” value came to 88%. Still for that read-out and setting: the result for “417001 (antisense eG*eT*dG*d[5mC]*dA*d[5mC]*dA*dG*dT*dT*dT*d[5mC]*dT*dG*dG*e[5mC]*eA*eG*eG*e[5mC]) [compound 417001]” reads 83%. For the substance “417004 (antisense eT*eT*dG*dG*dT*dG*d[5mC]*dA*d[5mC]*dA*dG*dT*dT*dT*d[5mC]*eT*eG*eG*e[5mC]*eA) [compound 417004]”, under setting [5], the “% inhibition” value came out at 86%. Turning to “417005 (antisense eA*eT*dT*dG*dG*dT*dG*d[5mC]*dA*d[5mC]*dA*dG*dT*dT*dT*e[5mC]*eT*eG*eG*e[5mC]) [compound 417005]”, the “% inhibition” value under setting [5] was determined as 79%. With “417006 (antisense e[5mC]*eA*dT*dT*dG*dG*dT*dG*d[5mC]*dA*d[5mC]*dA*dG*dT*dT*eT*e[5mC]*eT*eG*eG) [compound 417006]”, the “% inhibition” value under setting [5] was found to be 81%.

For the substance “417007 (antisense eG*e[5mC]*dA*dT*dT*dG*dG*dT*dG*d[5mC]*dA*d[5mC]*dA*dG*dT*eT*eT*e[5mC]*eT*eG) [compound 417007]”, under setting [5], the “% inhibition” value is 82%. For the substance “417008 (antisense eG*eG*d[5mC]*dA*dT*dT*dG*dG*dT*dG*d[5mC]*dA*d[5mC]*dA*dG*eT*eT*eT*e[5mC]*eT) [compound 417008]”, the “% inhibition” value under setting [5] is recorded as 82%. “417009 (antisense e[5mC]*eG*dG*d[5mC]*dA*dT*dT*dG*dG*dT*dG*d[5mC]*dA*d[5mC]*dA*eG*eT*eT*eT*e[5mC]) [compound 417009]”: the “% inhibition” value under setting [5] is recorded as 85%. With “417010 (antisense eA*e[5mC]*dG*dG*d[5mC]*dA*dT*dT*dG*dG*dT*dG*d[5mC]*dA*d[5mC]*eA*eG*eT*eT*eT) [compound 417010]”, the “% inhibition” value under setting [5] was found to be 81%. Same read-out and setting: the result for “417011 (antisense eG*eA*d[5mC]*dG*dG*d[5mC]*dA*dT*dT*dG*dG*dT*dG*d[5mC]*dA*e[5mC]*eA*eG*eT*eT) [compound 417011]” reads 86%; that for “417012 (antisense eG*eG*dA*d[5mC]*dG*dG*d[5mC]*dA*dT*dT*dG*dG*dT*dG*d[5mC]*eA*e[5mC]*eA*eG*eT) [compound 417012]”, 72%; that for “417013 (antisense e[5mC]*eG*dG*dA*d[5mC]*dG*dG*d[5mC]*dA*dT*dT*dG*dG*dT*dG*e[5mC]*eA*e[5mC]*eA*eG) [compound 417013]”, 86%. For “417014 (antisense eG*e[5mC]*dG*dG*dA*d[5mC]*dG*dG*d[5mC]*dA*dT*dT*dG*dG*dT*eG*e[5mC]*eA*e[5mC]*eA) [compound 417014]”, the “% inhibition” value under setting [5] is 87%.

As to “417015 (antisense eA*eG*d[5mC]*dG*dG*dA*d[5mC]*dG*dG*d[5mC]*dA*dT*dT*dG*dG*eT*eG*e[5mC]*eA*e[5mC]) [compound 417015]”, the “% inhibition” value under setting [5] was found to be 87%. For “417016 (antisense e[5mC]*eA*dG*d[5mC]*dG*dG*dA*d[5mC]*dG*dG*d[5mC]*dA*dT*dT*dG*eG*eT*eG*e[5mC]*eA) [compound 417016]”, the “% inhibition” value under setting [5] came out at 85%. Regarding “417017 (antisense eG*e[5mC]*dA*dG*d[5mC]*dG*dG*dA*d[5mC]*dG*dG*d[5mC]*dA*dT*dT*eG*eG*eT*eG*e[5mC]) [compound 417017]”, the “% inhibition” value under setting [5] amounted to 82%.
